Data set [1] addresses native rat brain NR2B receptors (Rattus norvegicus (Rat), UniProt P35439+Q00960). In words: NR2B radioligand binding assay in rat brain using [3H] (E)-N1-(2-methoxybenzyl)-cinnamidine. The procedure:
This example describes an NR2B receptor binding assay in rat brain using [^3H] […] The binding assay method was adapted from a previously described cellular human NR1a/NR2B cloned receptor assay (Kiss et al. Neurochem. Internatl. 2005, 46:453-464) to rat brain tissue. This assay serves as a selective measure of NR2B receptor binding activity in native rat brain receptors. Briefly, the brains of male Wistar rats were homogenized (Polytron) before centrifugation at 40,000×g for 15 minutes at 4° C. After 2 washes, the final pellet was homogenized and stored at −80° C. The protein concentration was determined by Bradford assay. [^3H] […] Non-specific binding was assessed in the presence of excess (10 μM) (E)-N1-(2-nethoxybenzyl)-cinnamidine.
Test compounds were solubilized at 10 mM in DMSO. Then the dilutions were performed with a constant solvent concentration (1% DMSO) in the assay. After incubation for 4.5 hours at room temperature, the assays were filtered on GF/3 filters pretreated with 0.3% (v/v) polyethylenimine (PEI) with a Packard system. The experiment was performed in duplicate (n=2).

The next data set addresses human NR1/NR2B (Homo sapiens (Human), UniProt Q05586+Q13224). In words: NR2B antagonist activity: calcium influx (Fluo-4) assay in HEK293 cells. The format is cell-based. On the procedure: Activation of the NR2A or NR2B subtype of NMDA receptor with glutamate as an agonist and glycine co-agonist on these cells results in calcium influx, which can be monitored with fluorescent indicator Fluo-4.
For experiments, the cells were seeded onto poly-D-lysine-coated 96-well black plates with clear bottom (Corning) at a density of ˜50,000 cells/well. After overnight culture, the growth medium was removed from the wells and the cells were incubated at 37° C. for 60 minutes in Hanks buffer containing 4 μM fluo-4-AM (Invitrogen) and 0.1% bovine serum albumin (BSA). After dye-loading, the cells were washed three times with Hanks buffer and incubated for 10 minutes at room temperature with various concentrations of test compounds prepared in Hanks buffer with 0.1% BSA. The cell plates were placed onto an FDSS Cell fluorescence reader (Hamamatsu). After 20 seconds of reading background fluorescence, agonist glutamate at final 100 µM and co-agonist glycine at final 50 μM were added to the cells to activate the receptor, and the resulting fluorescence changes were recorded and quantified. Based on the changes in fluorescence intensity, the pharmacological effect of test compounds was analyzed and the IC50 values derived from a non-linear least squares fitting of the concentration-dependent response to a standard logistic equation using Prism (Graphpad Software, Inc.): Amplitude=Max Amplitude/(1+(IC50/[antagonist])^n).

The test system of data set [2] is wild type mice (male NMRI). Put plainly: Marble Burying Test in wild type mice. Conditions: for change in vivo at 3 mg/kg / change in vivo at 10 mg/kg / change in vivo at 30 mg/kg: Mus musculus, ip, read-out: Percent Change in marbles buried relative to vehicle. The format is in vivo, mouse. The procedure: Animals. Male NMRI mice (20-30 g body weight) were obtained from Janvier Labs (Le Genest-Saint Isle, France) and allowed to acclimate to the animal facility for at least 5 days. Twelve mice were studied per treatment group.
Compound formulation. The test compounds were prepared in a vehicle of 0.5% DMSO and 4% HP-β-CD, and administered orally (PO) or IP. The test compounds or vehicle were administered 20 minutes before the behavioral test described below. Clobazam (8 mg/kg IP), administered 30 minutes before the test, was used as the positive reference compound.
Clobazam was dispersed in 0.2% hydroxypropylmethylcellulose (HPMC) in physiological saline. Dosing volume was 10 mL/kg.
Testing procedure. The Marble Burying Test was conducted as previously described by Broekkamp et al. (Eur. J. Pharmacol. 1986, 126:223-229). Mice exposed to small novel objects (marbles) will bury them in the sawdust floor covering. Anxiolytics decrease the number of marbles buried at non-sedating doses. Mice were individually placed in transparent plastic cages (33×21×18 cm) with 5 cm of sawdust on the floor and 25 marbles grouped in the center of the cage. The cage was covered with an inverted plastic cage. Each test cage, together with the marbles, was impregnated with mouse odor before-hand by leaving 10 mice in the cage for 15 minutes. These mice then played no further role in the experiment. The number of marbles covered by sawdust (⅔ or more) was counted at the end of the 30-minute test. The test was performed blind (compounds versus vehicle).
Statistical analyses. Data were analyzed by comparing test compound-treated groups with the vehicle control group using the Kruskal-Wallis test followed by post-hoc Mann-Whitney U tests. Data comparing the reference compound with the vehicle were analyzed using the Mann-Whitney U test. A p value<0.05 was considered significant.

In another data set the target is hERG channel (Homo sapiens (Human), UniProt Q12809). Put plainly: hERG channel inhibition, whole cell patch clamp in HEK293 cells. The format is cell-based. To be noted: Table 1.3A. (In general: The hERG channel carries a current that helps repolarise heart muscle cells.)
Sequence of hERG channel (Q12809 whole entry): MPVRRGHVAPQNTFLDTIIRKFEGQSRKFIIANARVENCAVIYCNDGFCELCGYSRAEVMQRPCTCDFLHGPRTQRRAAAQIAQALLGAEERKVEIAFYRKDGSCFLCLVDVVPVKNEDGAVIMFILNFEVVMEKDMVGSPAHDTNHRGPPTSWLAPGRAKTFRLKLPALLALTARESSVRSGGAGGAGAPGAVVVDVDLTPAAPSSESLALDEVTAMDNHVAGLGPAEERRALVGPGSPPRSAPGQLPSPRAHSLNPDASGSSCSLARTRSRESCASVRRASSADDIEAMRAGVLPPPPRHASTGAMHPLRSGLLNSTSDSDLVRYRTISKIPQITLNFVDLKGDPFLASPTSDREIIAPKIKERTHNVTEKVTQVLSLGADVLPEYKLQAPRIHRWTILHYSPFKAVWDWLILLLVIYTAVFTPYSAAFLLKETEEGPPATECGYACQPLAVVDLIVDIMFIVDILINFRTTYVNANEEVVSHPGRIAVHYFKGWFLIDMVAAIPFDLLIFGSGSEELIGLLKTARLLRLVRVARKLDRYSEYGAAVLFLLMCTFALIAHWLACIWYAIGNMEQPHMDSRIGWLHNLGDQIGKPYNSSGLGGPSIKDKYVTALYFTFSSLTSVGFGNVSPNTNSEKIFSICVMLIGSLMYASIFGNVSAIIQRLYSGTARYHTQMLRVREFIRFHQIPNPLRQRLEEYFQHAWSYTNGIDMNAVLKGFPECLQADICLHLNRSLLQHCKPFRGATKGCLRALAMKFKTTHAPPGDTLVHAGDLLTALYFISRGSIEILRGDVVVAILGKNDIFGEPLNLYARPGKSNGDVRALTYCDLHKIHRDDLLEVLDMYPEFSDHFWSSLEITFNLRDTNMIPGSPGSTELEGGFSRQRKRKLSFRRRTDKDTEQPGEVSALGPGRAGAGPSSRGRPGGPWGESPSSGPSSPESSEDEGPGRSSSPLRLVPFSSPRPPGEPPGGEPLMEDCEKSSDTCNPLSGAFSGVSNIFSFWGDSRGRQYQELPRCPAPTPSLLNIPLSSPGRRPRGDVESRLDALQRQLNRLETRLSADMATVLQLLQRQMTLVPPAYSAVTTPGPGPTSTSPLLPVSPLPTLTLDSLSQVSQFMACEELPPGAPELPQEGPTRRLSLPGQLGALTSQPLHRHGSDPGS
For data set [3], the system named is wild type mice (male C57Bl/6). Put plainly: Novelty Phobia Test in wild type mice. The format is in vivo, mouse. To be noted: for Percent Change in Novel Object Number of Nose Touches relative to vehicle control: pre-test time 10 min; for pattern of the dose-response function for bouts of nose touching: mouse, in vivo. On the procedure: Animals. Male C57Bl/6 mice (18-30 g body weight; 6-8 weeks of age) were obtained from Slaccas (Shanghai, China) and allowed to acclimate to the animal facility for 7 days. Mice were group housed in plastic cages (no more than 4 animals per cage) on wood shavings with nesting material. All animals had free access to food (M01-F, Slaccas) and water. The animal facility was maintained under artificial lighting between 7:00 AM and 7:00 PM in a controlled ambient temperature of 22-24° C. and relative humidity between 50-60%.
Compound formulation. The test compounds were prepared in a vehicle of DMSO and HP-β-CD, and administered IP or PO. The test compounds or vehicle were administered at various times (10-20 minutes) before the behavioral test described below. Dosing volume was 10 mL/kg.
Testing procedure. The behavioral testing apparatus was a rectangular black Plexiglas, 2-chambered box, with no top or bottom (50 cm long, 26 cm wide and 15 cm tall) and allowed for the simultaneous testing of 2 mice. The box was placed on a laboratory bench. The chambers of the testing box were cleaned and fresh paper chip bedding was added between tests. Mice were brought to the experiment room in their home cages on the day of testing. Behavioral tests were conducted between 10:00 AM and 1:00 PM in dim light. After drug administration, a mouse was placed into a test chamber and allowed to explore for 10 minutes. After this habituation period, a novel object (e.g., a toy ball of 3 cm in diameter with spikes) was introduced to the center of the chamber for 5 minutes. For the entire 15-minute test period, video was recorded for offline analysis with Any-maze Video Tracking software (Stoelting Co., Wood Dale, Ill.). The total distance traveled during the entire 15 minutes and the number of bouts that each mouse touched the novel object during the last 5 minutes were measured.
Statistical analyses. Data are presented as means and SEMs. Data were analyzed using one-way analysis of variance (ANOVA; Prism, GraphPad Software Inc., San Diego, Calif.), followed by the post-hoc Dunnett's test to compare test compound-treated groups with the vehicle control. A p value<0.05 was considered significant.

The mark [4] stands for this setting: read-out: hNR2B IC50, Table 1.3A.
[5] abbreviates: Table 1.1A, read-out: NR2B IC50.
[6] abbreviates: Table 1.3A, read-out: hNR2B IC50.
Where [7] appears, read: rat brain NR2B receptors, mean of replicates, read-out: Arithmetic Mean Ki.

The values that follow come from US11752155B2, “Treatment of autism spectrum disorders, obsessive-compulsive disorder and anxiety disorders” (Rugen Holdings (Cayman) Limited, priority 2016, dated 2023).

Where a name gives a salt, the structure may show the parent alone. Read-outs that look alike come from different tables or passages of the source. Where only a bound is given, the exact number is not on record here.

In general, Ki refers to a dissociation constant, usually derived from enzyme kinetics or from competition with a known ligand. For orientation: IC50 means the midpoint of a concentration-inhibition curve.

Sequence of human NR1/NR2B (Q13224 27-1484, other chains not shown): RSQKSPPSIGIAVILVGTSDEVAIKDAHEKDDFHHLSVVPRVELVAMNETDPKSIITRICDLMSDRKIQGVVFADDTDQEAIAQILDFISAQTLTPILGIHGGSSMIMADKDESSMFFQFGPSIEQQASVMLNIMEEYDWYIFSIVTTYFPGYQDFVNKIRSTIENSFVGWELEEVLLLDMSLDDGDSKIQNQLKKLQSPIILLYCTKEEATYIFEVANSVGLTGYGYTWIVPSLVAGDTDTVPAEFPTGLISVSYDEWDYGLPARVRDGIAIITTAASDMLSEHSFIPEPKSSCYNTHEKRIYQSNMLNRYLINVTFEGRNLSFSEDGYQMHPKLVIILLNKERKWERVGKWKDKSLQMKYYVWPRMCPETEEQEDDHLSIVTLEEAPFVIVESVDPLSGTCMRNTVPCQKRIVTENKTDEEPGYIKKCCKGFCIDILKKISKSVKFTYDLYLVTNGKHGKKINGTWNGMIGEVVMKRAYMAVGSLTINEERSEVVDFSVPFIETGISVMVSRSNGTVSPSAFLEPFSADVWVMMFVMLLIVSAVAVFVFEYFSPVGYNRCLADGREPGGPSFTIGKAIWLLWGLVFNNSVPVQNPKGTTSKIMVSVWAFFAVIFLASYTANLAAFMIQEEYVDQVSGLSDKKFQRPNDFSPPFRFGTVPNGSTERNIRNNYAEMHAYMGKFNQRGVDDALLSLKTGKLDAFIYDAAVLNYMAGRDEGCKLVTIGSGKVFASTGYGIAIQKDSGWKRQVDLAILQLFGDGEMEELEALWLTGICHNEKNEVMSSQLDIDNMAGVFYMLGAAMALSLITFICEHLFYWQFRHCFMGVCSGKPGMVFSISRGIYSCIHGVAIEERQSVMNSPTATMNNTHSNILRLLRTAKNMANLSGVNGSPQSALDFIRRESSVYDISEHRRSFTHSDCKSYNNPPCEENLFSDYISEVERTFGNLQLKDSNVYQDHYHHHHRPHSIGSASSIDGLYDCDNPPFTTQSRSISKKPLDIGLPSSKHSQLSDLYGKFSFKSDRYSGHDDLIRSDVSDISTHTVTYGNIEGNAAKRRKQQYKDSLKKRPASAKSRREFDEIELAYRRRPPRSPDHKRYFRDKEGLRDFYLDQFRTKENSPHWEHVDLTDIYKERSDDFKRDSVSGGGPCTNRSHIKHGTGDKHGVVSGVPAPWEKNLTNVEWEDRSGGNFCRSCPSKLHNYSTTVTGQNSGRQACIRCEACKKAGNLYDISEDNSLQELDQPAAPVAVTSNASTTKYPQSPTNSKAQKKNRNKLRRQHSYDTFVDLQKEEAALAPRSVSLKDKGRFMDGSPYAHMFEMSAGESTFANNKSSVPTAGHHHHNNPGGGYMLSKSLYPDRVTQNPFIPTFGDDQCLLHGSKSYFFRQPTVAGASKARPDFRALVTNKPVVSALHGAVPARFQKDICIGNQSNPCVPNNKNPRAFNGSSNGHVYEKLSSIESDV
Sequence of native rat brain NR2B receptors (Q00960 27-1482, other chains not shown): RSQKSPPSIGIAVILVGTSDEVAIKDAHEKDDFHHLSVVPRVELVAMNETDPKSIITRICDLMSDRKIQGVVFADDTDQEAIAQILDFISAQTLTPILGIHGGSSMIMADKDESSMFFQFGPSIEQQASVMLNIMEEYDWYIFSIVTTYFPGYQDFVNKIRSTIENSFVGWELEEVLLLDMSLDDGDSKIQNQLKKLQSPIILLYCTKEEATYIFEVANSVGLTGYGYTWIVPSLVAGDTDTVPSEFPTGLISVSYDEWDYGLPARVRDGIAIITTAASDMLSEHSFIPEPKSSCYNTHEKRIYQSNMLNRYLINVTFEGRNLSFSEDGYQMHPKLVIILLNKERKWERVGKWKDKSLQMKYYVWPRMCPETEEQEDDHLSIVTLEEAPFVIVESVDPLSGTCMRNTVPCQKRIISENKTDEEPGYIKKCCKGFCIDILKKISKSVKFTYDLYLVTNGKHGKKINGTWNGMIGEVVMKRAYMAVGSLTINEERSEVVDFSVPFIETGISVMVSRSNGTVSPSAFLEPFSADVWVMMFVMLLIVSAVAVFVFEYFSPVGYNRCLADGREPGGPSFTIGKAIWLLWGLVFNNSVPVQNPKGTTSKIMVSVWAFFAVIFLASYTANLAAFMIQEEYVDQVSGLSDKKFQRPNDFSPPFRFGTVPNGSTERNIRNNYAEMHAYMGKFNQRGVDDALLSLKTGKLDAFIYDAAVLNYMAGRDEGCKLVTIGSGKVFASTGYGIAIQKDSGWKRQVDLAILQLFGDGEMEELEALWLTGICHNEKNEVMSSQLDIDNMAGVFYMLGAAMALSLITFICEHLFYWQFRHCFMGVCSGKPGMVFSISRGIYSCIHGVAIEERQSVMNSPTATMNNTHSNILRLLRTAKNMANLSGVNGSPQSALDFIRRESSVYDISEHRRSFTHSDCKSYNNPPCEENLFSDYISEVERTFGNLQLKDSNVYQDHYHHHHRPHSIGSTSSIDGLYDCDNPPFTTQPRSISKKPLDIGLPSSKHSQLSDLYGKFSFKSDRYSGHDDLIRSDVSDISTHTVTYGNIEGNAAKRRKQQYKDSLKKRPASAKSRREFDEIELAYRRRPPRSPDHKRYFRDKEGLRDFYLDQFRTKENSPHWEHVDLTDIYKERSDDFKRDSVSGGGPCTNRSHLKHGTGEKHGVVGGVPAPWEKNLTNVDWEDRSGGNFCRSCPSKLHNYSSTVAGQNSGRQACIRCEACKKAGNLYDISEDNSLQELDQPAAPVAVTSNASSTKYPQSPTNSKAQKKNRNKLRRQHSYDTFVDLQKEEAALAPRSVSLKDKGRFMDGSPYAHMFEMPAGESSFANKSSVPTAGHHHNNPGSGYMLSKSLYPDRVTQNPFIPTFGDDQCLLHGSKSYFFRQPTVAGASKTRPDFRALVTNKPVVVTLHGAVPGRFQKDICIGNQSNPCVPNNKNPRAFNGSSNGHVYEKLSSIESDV
Protocol for hERG channel: The assay was performed on hERG channel stably expressed in HEK293 cells. The cells were cultured at 37° C. in a humidified CO2 incubator in the growth medium consisting of DMEM, 10% fetal bovine serum and antibiotics. Prior to the assay, the cells were seeded onto a 12-mm PDL-coated glass coverslip and cultured in a 35-mm Petri dish. After 16 to 40 hours culture, the coverslip was transferred into the chamber of OctaFlow perfusion system (ALA Instrument) and under a constant flow of extracellular solution (140 mM NaCl, 4 mM KCl, 1 mM MgCl2, 2 mM CaCl2, 10 mM HEPES, 10 mM D-glucose, pH 7.35, osmolarity 290). Whole cell patch clamping was performed with a glass micropipette filled with intracellular solution (120 mM KCl, 1.75 mM MgCl2, 5.4 mM CaCl2, 10 mM HEPES, 10 mM EGTA, and 4 mM ATP-K2, pH 7.2, osmolarity 310). Giga-seal was maintained during the test. The voltage control and current measurement were carried out using Axon amplifier 700B, Digidata 1440A and CLAMPEX10 software (Molecular Devices). Whole-cell hERG currents were recorded following the Petroski protocol: the cell was held at −80 mV, and the voltage step jumped from −80 to 30 mV and stay for 2 seconds with a 20-millisecond prepulse at −40 mV. After depolarization, the voltage was decreased to −40 mV and stay for 2 seconds, and returned back to −80 mV. Test compound was applied by quartz capillary tubes tip (200 m inner diameter), and the flow rate was controlled at 2-3 mL/min with OctaFlow perfusion system. Different concentrations of the compound were applied to the cells for 5 minutes and the hERG current was measured three times before, during and after compound treatment. The data were analyzed using Clampfit 10 software (Molecular Devices) to generate IC50 values.

With `COc1ccccc1CNC(=N)/C=C/c1ccccc1` [(E)-N1-(2-methoxybenzyl)-cinnamidine, reference compound], the Ki in data set [1] (high affinity site, rat brain membranes, read-out: inhibition constant (Ki), mean) is 0.22 nM.

For `Fc1ccc(C(F)(F)CN2CCC(Nc3ncnc4[nH]ccc34)CC2)nc1` [C-2^A′], the IC50 at human NR1/NR2B turned out to be 124 nM.

Consider `Cc1ccc(C(F)(F)CN2CCC(Nc3ncnc4[nH]ccc34)CC2)nc1` [C-4^A′], for which the half-inhibitory concentration (IC50) on human NR1/NR2B and on human NR1/NR2B (setting [4]) was 35 nM in each case.

For `FC(F)c1ccc(C(F)(F)CN2CCC(Nc3ncnc4[nH]ccc34)CC2)nc1` [C-6^A′], in data set [2], the change in vivo at 3 mg/kg was -23%, the change in vivo at 10 mg/kg was -62% and the change in vivo at 30 mg/kg is -100%. Also, the IC50 on hERG channel came to 6900 nM. In addition, on human NR1/NR2B (setting [5]), the IC50 worked out at 31 nM. In addition, the IC50 on human NR1/NR2B (setting [6]) amounted to 31 nM.

Regarding `FCc1ccc(C(F)(F)CN2CCC(Nc3ncnc4[nH]ccc34)CC2)nc1` [C-7^A′], the half-maximal inhibitory concentration (IC50) at human NR1/NR2B turned out to be 14 nM.

In the case of `FC(F)Oc1ccc(C(F)(F)CN2CCC(Nc3ncnc4[nH]ccc34)CC2)nc1` [C-12^A′], in data set [3] (IP (C-11 also PO)), the “bouts of nose touching of the novel object, efficacy” value is “not efficacious”. For the same compound, in data set [2], the change in vivo at 3 mg/kg was -14%, the change in vivo at 10 mg/kg is -56% and the change in vivo at 30 mg/kg is -100%.

As for `Fc1cc(Cl)cnc1C(F)(F)CN1CCC(Nc2ncnc3[nH]ccc23)CC1` [C-16^A′], the IC50 against hERG channel is 60000 nM; on human NR1/NR2B, 47 nM; at human NR1/NR2B (setting [4]), 47 nM.

Consider `Cc1cnc(C(F)(F)CN2CCC(Nc3ncnc4[nH]ccc34)CC2)c(F)c1` [C-17^A′], for which the IC50 at human NR1/NR2B stood at 44 nM.

For `Fc1cc(C(F)(F)F)cnc1C(F)(F)CN1CCC(Nc2ncnc3[nH]ccc23)CC1` [C-18^A′], the IC50 on human NR1/NR2B (setting [5]) amounted to 84 nM.

In the case of `Cc1ccc(C(F)(F)CN2CCC(N(C)c3ncnc4[nH]ccc34)CC2)nc1` [C-47^A′], the IC50 at human NR1/NR2B (setting [5]) worked out at 140 nM.

On to `Cc1ccc(C(F)(F)CN2CCC(Nc3ncnc4[nH]ccc34)CC2)cn1` [C-128^A′], for which the IC50 at human NR1/NR2B and on human NR1/NR2B (setting [4]) was 89 nM each time.

Take `Fc1ccc(C(F)(F)CN2CCC(Nc3ncnc4[nH]ccc34)CC2)cc1` [C-175^A′]: the “Percent Change in Novel Object Number of Nose Touches relative to vehicle control” value in data set [3] (IP, 3 mg/kg) is given as 25.1%; in data set [3] (IP, 10 mg/kg), 139%; in data set [3] (IP, 30 mg/kg), −88.1%. Also, in data set [3], the “pattern of the dose-response function for bouts of nose touching” value was “inverted U-shaped dose-response function”. Besides, the IC50 turned out to be 22 nM at human NR1/NR2B; 22 nM at human NR1/NR2B (read-out: NR2B IC50, Table 1.4A); 22 nM at human NR1/NR2B (setting [4]).

Take `FC(F)(CN1CCC(Nc2ncnc3[nH]ccc23)CC1)c1ccc(Cl)cc1` [C-176^A′]: the IC50 on human NR1/NR2B amounted to 26 nM.

As to `Cc1ccc(C(F)(F)CN2CCC(Nc3ncnc4[nH]ccc34)CC2)cc1` [C-177^A′], on human NR1/NR2B, the IC50 came to 27 nM.

As for `FC(F)(F)c1ccc(C(F)(F)CN2CCC(Nc3ncnc4[nH]ccc34)CC2)cc1` [C-178^A′], in data set [3] (Mus musculus, ip, 20 min, IP, 0.3 mg/kg, pre-test time 20 min, read-out: Percent Change in Novel Object Number of Nose Touches relative to vehicle control), the change in vivo at 0.3 mg/kg was -4.12%. Besides, in data set [3] (Mus musculus, ip, 20 min, IP, 1 mg/kg, pre-test time 20 min, read-out: Percent Change in Novel Object Number of Nose Touches relative to vehicle control), the change in vivo at 1 mg/kg is 50.3%. Further, the change in vivo at 3 mg/kg in data set [3] (Mus musculus, ip, 20 min, IP, 3 mg/kg, pre-test time 20 min, read-out: Percent Change in Novel Object Number of Nose Touches relative to vehicle control) came out at 110%. In addition, the “pattern of the dose-response function for bouts of nose touching” value in data set [3] is given as “dose-dependent increases”. For the same compound, the IC50 against hERG channel worked out at 1600 nM; on human NR1/NR2B (setting [5]) it was 64 nM; on human NR1/NR2B (setting [6]), 64 nM; at human NR1/NR2B (Table 1.4A, read-out: NR2B IC50) it was 64 nM.

For the compound `Cc1cnc(C(F)(F)CN2CCC(Nc3ncnc4[nH]ccc34)CC2)cn1` [C-230^A′], the IC50 on human NR1/NR2B and at human NR1/NR2B (setting [4]) was 88 nM throughout.

`Cc1ccc(COC(=O)N2CC[C@H](CNc3cnc(C#N)cn3)C(F)(F)C2)cc1` [E1-21.30^B′, (R)-4-methylbenzyl 4-(((5-cyanopyrazin-2-yl)amino)methyl)-3,3-difluoropiperidine-1-carboxylate]: the Ki in data set [1] (setting [7]) stood at 31 nM.

Take `Cc1cnc(NC[C@H]2CCN(C(=O)OCc3ccc(Cl)cc3)CC2(F)F)cn1` [E1-21.33^B′, (R)-4-chlorobenzyl 3,3-difluoro-4-(((5-methylpyrazin-2-yl)amino)methyl)piperidine-1-carboxylate mesylate]: the Ki in data set [1] (setting [7]) was determined as 11 nM.

Take `Cc1cnc(NC[C@H]2CCN(C(=O)OCc3ccc(F)cc3)CC2(F)F)cn1` [E1-21.34^B′, (R)-4-fluorobenzyl 3,3-difluoro-4-(((5-methylpyrazin-2-yl)amino)methyl)piperidine-1-carboxylate mesylate]: the inhibition constant Ki in data set [1] (setting [7]) was 16 nM.

For the compound `Cc1ccc(COC(=O)N2CC[C@H](CNc3ncc(C(F)(F)F)cn3)C(F)(F)C2)cc1` [E1-22.29^B′, (R)-4-methylbenzyl 3,3-difluoro-4-(((5-(trifluoromethyl)pyrimidin-2-yl)amino)methyl)piperidine-1-carboxylate methanesulfonate], the Ki in data set [1] (setting [7]) is more than 1000 nM.

Regarding `CN1C(=O)CC(=O)N(c2ccccc2)c2cc(Cl)ccc21` [clobazam, Clobazam, reference compound], the “number of buried marbles, positive reference” value in data set [2] (8 mg/kg IP, 30 minutes before the test, data not shown) was “significantly reduced the number of buried marbles”.
